According to US9902725B2, “Heterocyclic derivatives as RORgamma modulators” (GENFIT, priority 2014, dated 2018):

target: T1, RORγt ligand-binding domain (RORγt-LBD) (Homo sapiens, UniProt P51449); assay: Time-resolved FRET (TR-FRET) RORγt coactivator assay; type: biochemical; details: GST-RORγ-LBD, biotinylated RIP140 peptide, coactivator displacement
T1 construct: 20 nM recombinantly expressed RORγ-LBD fused to GST
T1 sequence (P51449 269-508 limits assumed): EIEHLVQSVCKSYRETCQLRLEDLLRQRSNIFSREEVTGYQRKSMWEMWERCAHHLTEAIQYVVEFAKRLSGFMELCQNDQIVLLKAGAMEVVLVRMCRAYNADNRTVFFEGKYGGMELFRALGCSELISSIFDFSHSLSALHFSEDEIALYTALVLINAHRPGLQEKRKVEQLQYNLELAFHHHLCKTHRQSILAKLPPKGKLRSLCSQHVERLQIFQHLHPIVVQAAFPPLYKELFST

IC50 | Compound
1000 to 10000 nM | Cc1cc(Br)ccc1C(NC(=O)Cc1ccc2[nH]cc(CCC(=O)OC(C)(C)C)c2c1)c1ccccc1 (stereo not drawn) [Cpd. 43, tert-butyl 3-[5-({[(4-bromo-2-methylphenyl)(phenyl)methyl]carbamoyl}methyl)-1H-indol-3-yl]propanoate]
10000 to 30000 nM | CC(C)CC(NC(=O)Nc1cnc2[nH]cc(CCC(=O)O)c2c1)c1ccccc1N1CCCCC1 (stereo not drawn) [compound 178, 3-{5-[({3-methyl-1-[2-(piperidin-1-yl)phenyl]butyl}carbamoyl)amino]-1H-pyrrolo[2,3-b]pyridin-3-yl}propanoic acid]
1000 to 10000 nM | O=C(O)CCc1c[nH]c2ccc(CC(=O)NC(c3ccccc3)c3ccccc3N3CCC(F)(F)CC3)cc12 (stereo not drawn) [compound 180, 3-{5-[({[2-(4,4-difluoropiperidin-1-yl)phenyl](phenyl)methyl}carbamoyl)methyl]-1H-indol-3-yl}propanoic acid]
< 1000 nM | CC(C)CC(NC(=O)Cc1ccc2[nH]cc(CCC(=O)O)c2c1)c1ccc(Br)cc1N1CCCC1 (stereo not drawn) [compound 182, 3-{5-[({1-[4-bromo-2-(pyrrolidin-1-yl)phenyl]-3-methylbutyl}carbamoyl)methyl]-1H-indol-3-yl}propanoic acid]
1000 to 10000 nM | Cc1ccc(C(NC(=O)Cc2ccc3[nH]cc(CCC(=O)O)c3c2)c2ccccc2)c(N)c1 (stereo not drawn) [compound 184, 3-[5-({[(2-amino-4-methylphenyl)(phenyl)methyl]carbamoyl}methyl)-1H-indol-3-yl]propanoic acid]
< 1000 nM | O=C(O)CCc1c[nH]c2ccc(CC(=O)NC(CC3CCOCC3)c3ccccc3N3CCCCC3)cc12 (stereo not drawn) [compound 190, 3-[5-({[2-(oxan-4-yl)-1-[2-(piperidin-1-yl)phenyl]ethyl]carbamoyl}methyl)-1H-indol-3-yl]propanoic acid]
1000 to 10000 nM | CC(C)CC(NC(=O)Cc1ccc2[nH]cc(CC(=O)O)c2c1)c1ccccc1N1CCCCC1 (stereo not drawn) [compound 194, 2-{5-[({3-methyl-1-[2-(piperidin-1-yl)phenyl]butyl}carbamoyl)methyl]-1H-indol-3-yl}acetic acid]
1000 to 10000 nM | O=C(O)CCc1c[nH]c2ccc(CC(=O)NC(c3ccccc3)c3ccccc3N3CCOCC3)cc12 (stereo not drawn) [compound 196, 3-{5-[({[2-(morpholin-4-yl)phenyl](phenyl)methyl}carbamoyl)methyl]-1H-indol-3-yl}propanoic acid]
< 1000 nM | CNc1cc(C)ccc1C(NC(=O)Cc1ccc2[nH]cc(CCC(=O)O)c2c1)c1ccccc1 (stereo not drawn) [compound 204, 3-{5-[({[4-methyl-2-(methylamino)phenyl](phenyl)methyl}carbamoyl)methyl]-1H-indol-3-yl}propanoic acid]
1000 to 10000 nM | O=C(Cc1ccc2[nH]cc(C(=O)O)c2c1)NC(c1ccccc1)c1ccccc1N1CCCCC1 (stereo not drawn) [compound 206, 1-(2-{[2-(3-carboxy-1H-indol-5-yl)acetamido](phenyl)methyl}phenyl)piperidin-1-ium chloride]
1000 to 10000 nM | Cc1ccc(C(NC(=O)Cc2ccc3[nH]cc(C(=O)O)c3c2)c2ccccc2)c(Br)c1 (stereo not drawn) [compound 207, 5-({[(2-bromo-4-methylphenyl)(phenyl)methyl]carbamoyl}methyl)-1H-indole-3-carboxylic acid]
< 1000 nM | O=C(O)CCC(=O)c1c[nH]c2ccc(CC(=O)NC(c3ccccc3)c3ccccc3N3CCCCC3)cc12 (stereo not drawn) [compound 213, 4-oxo-4-{5-[({phenyl[2-(piperidin-1-yl)phenyl]methyl}carbamoyl)methyl]-1H-indol-3-yl}butanoic acid]
< 1000 nM | O=C(O)CCCC(=O)c1c[nH]c2ccc(CC(=O)NC(c3ccccc3)c3ccccc3N3CCCCC3)cc12 (stereo not drawn) [compound 215, 5-oxo-5-{5-[({phenyl[2-(piperidin-1-yl)phenyl]methyl}carbamoyl)methyl]-1H-indol-3-yl}pentanoic acid]
1000 to 10000 nM | Cc1ccc(C(NC(=O)Cc2ccc3[nH]cc(CCC(=O)O)c3c2)c2ccccc2)c2[nH]ccc12 (stereo not drawn) [compound 229, 3-[5-({[(4-methyl-1H-indol-7-yl)(phenyl)methyl]carbamoyl}methyl)-1H-indol-3-yl]propanoic acid]
1000 to 10000 nM | N=C(N)NC(=O)CCc1c[nH]c2ccc(CC(=O)NC(c3ccccc3)c3ccccc3N3CCCCC3)cc12 (stereo not drawn) [compound 235, 1-{2-[(2-{3-[2-(carbamimidoylcarbamoyl)ethyl]-1H-indol-5-yl}acetamido)(phenyl)methyl]phenyl}piperidin-1-ium chloride]
< 1000 nM | O=C(O)CCc1n[nH]c2ccc(CC(=O)NC(c3ccccc3)c3ccccc3N3CCCCC3)cc12 (stereo not drawn) [compound 237, 3-{5-[({phenyl[2-(piperidin-1-yl)phenyl]methyl}carbamoyl)methyl]-1H-indazol-3-yl}propanoic acid]
< 1000 nM | CC(C)CC(NC(=O)Cc1ccc2[nH]cc(CCC(=O)O)c2c1)c1ccccc1OC(C)C (stereo not drawn) [compound 241, 3-{5-[({3-methyl-1-[2-(propan-2-yloxy)phenyl]butyl}carbamoyl)methyl]-1H-indol-3-yl}propanoic acid]
< 1000 nM | CCOc1ccccc1C(CC(C)C)NC(=O)Cc1ccc2[nH]cc(CCC(=O)O)c2c1 (stereo not drawn) [compound 243, 3-[5-({[1-(2-ethoxyphenyl)-3-methylbutyl]carbamoyl}methyl)-1H-indol-3-yl]propanoic acid]
< 1000 nM | CC(C)CCC(NC(=O)Cc1ccc2[nH]cc(CCC(=O)O)c2c1)c1ccccc1N1CCCCC1 (stereo not drawn) [compound 245, 3-{5-[({4-methyl-1-[2-(piperidin-1-yl)phenyl]pentyl}carbamoyl)methyl]-1H-indol-3-yl}propanoic acid]
< 1000 nM | CCOc1ccc(C(NC(=O)Cc2ccc3[nH]cc(CCC(=O)O)c3c2)c2ccccc2)c(OCC)c1 (stereo not drawn) [compound 247, 3-[5-({[(2,4-diethoxyphenyl)(phenyl)methyl]carbamoyl}methyl)-1H-indol-3-yl]propanoic acid]
< 1000 nM | Cc1ccc(C(NC(=O)Cc2ccc3[nH]cc(CCC(=O)O)c3c2)c2ccccc2)c(N2CCCCCC2)c1 (stereo not drawn) [compound 251, 3-{5-[({[2-(azepan-1-yl)-4-methylphenyl](phenyl)methyl}carbamoyl)methyl]-1H-indol-3-yl}propanoic acid]
< 1000 nM | Cc1cc(C(NC(=O)Cc2ccc3[nH]cc(CCC(=O)O)c3c2)c2ccccc2N2CCCCC2)oc1C (stereo not drawn) [compound 253, 3-[5-({[(4,5-dimethylfuran-2-yl)[2-(piperidin-1-yl)phenyl]methyl]carbamoyl}methyl)-1H-indol-3-yl]propanoic acid]
< 1000 nM | Cc1ccc(C(NC(=O)Cc2ccc3[nH]cc(CCC(=O)O)c3c2)c2ccccc2OC(C)C)o1 (stereo not drawn) [compound 255, 3-[5-({[(5-methylfuran-2-yl)[2-(propan-2-yloxy)phenyl]methyl]carbamoyl}methyl)-1H-indol-3-yl]propanoic acid]
< 1000 nM | CON(C)C(=O)Cc1c[nH]c2ccc(CC(=O)NC(c3ccccc3)c3ccccc3N3CCCCC3)cc12 (stereo not drawn) [compound 258, N-methoxy-N-methyl-2-{5-[({phenyl[2-(piperidin-1-yl)phenyl]methyl}carbamoyl)methyl]-1H-indol-3-yl}acetamide]
1000 to 10000 nM | CC(C)CC(NC(=O)Nc1ccc2[nH]cc(CCC(=O)OC(C)(C)C)c2c1)c1ccccc1N1CCCCC1 (stereo not drawn) [compound 262, tert-butyl 3-{5-[({3-methyl-1-[2-(piperidin-1-yl)phenyl]butyl}carbamoyl)amino]-1H-indol-3-yl}propanoate]
< 1000 nM | Cc1ccc(C(NC(=O)Cc2ccc3[nH]cc(CCC(=O)OC(C)(C)C)c3c2)c2ccccc2)c(N2CCN(Cc3ccccc3)CC2)c1 (stereo not drawn) [compound 263, tert-butyl 3-{5-[({[2-(4-benzylpiperazin-1-yl)-4-methylphenyl](phenyl)methyl}carbamoyl)methyl]-1H-indol-3-yl}propanoate]

target: T2, human RORγt (Homo sapiens, UniProt P51449); assay: IL-17 secretion from EL4 murine lymphoma overexpressing human RORγt; type: cell-based; parameters: expressed in transfected cells; host or cells: EL-4 murine lymphoma; details: IL-17 secretion inhibition, PMA and ionomycin stimulation, 24 h
T2 sequence (P51449 1-497 isoform P51449-2): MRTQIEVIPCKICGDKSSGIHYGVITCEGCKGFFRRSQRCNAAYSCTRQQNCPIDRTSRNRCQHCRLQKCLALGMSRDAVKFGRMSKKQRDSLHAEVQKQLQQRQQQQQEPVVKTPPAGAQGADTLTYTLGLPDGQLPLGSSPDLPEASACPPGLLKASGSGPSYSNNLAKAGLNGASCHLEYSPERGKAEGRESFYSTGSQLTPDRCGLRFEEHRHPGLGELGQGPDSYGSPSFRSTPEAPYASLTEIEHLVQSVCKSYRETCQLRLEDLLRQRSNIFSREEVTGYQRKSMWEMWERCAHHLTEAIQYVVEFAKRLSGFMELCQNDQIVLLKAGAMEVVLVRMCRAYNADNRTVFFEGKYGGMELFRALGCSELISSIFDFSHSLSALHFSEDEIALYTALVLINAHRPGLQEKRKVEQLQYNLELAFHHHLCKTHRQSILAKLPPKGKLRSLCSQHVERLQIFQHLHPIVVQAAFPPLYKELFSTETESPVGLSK
Method: Murine EL-4 lymphoma cell line overexpressing human RORγt was used in this functional assay to assess compound ability to inhibit IL-17 cytokine secretion.
EL-4 cells are maintained in a standard culture medium RPMI supplemented with 10% fetal calf serum, 1% sodium pyruvate, 1% essential amino acids and 1% antibiotics at 37° C. in a humidified atmosphere of 5% CO2 and 95% air. Culture medium was changed every 2 days. EL4 cells were transfected with a plasmid encoding hRORγt (sequence identical to published sequence NM 001001523). […] Briefly, 1 μg of DNA/1 million cells was served to transfect EL-4 cells. Cell/DNA suspension was transferred into certified cuvette and the electroporation of RORγt plasmid was carried out using appropriate Nucleofector® program.
Cells were seeded in 96 well plates at a density of 150000 cells/well then treated with compounds of this invention at indicated concentrations and incubated for 24 hours at 37° C. in a humidified atmosphere of 5% CO2 and 95% air. EL-4 cells were pretreated with test compounds (RORγ modulators) and stimulated with PMA (10 ng/mL) and ionomycin (1 μM final concentration) in the presence of test compound concentrations for additional 24 h at 37° C. in a humidified atmosphere of 5% CO2 and 95% air. Subsequently, supernatants were collected (after centrifugation at 300 g for 10 minutes) to determine the concentrations of IL-17 by HTRF (CisBio, France) or ELISA (R&D Systems Europe) according to the manufacturer's protocols.

IC50 | Compound
10000 to 30000 nM | Cc1cc(Br)ccc1C(NC(=O)Cc1ccc2[nH]cc(CCC(=O)OC(C)(C)C)c2c1)c1ccccc1 (stereo not drawn) [Cpd. 43, tert-butyl 3-[5-({[(4-bromo-2-methylphenyl)(phenyl)methyl]carbamoyl}methyl)-1H-indol-3-yl]propanoate]
